Assay results as given in patent US20080019910A1, “Cancer Treatment and Cancer Treatment Efficacy Prediction by Blocking and Detecting Protease Inhibitors” (priority 2004, published 2008).

How the values were obtained:
[1] = tested on: wild-type and PAI-1 gene-deficient fibrosarcoma cell lines; experiment: Clonogenic assay (colony formation in soft agar); type: cell-based, mouse; settings: PAI-1−/− versus wild type fibrosarcoma cells
Description: The cell lines described in Example 1 were used. The cells were in passage 35 (wild-type cells) and passage 50 (PAI-1 gene deficient cells). […] Gentle aspiration was repeated using a 1 ml syringe to achieve single cell suspension. 1 ml was then plated in triplicate in Petri dishes upon a feeder layer of SRBC (see separate paragraph for preparation of these). When the agar had solidified, 1 ml of media was added on top. 18-24 dishes were placed on plastic trays and two Petri dishes containing water were placed on each tray for conditioning. […] Colonies (>64 cells) were counted after 3 weeks. The experimental drugs were dissolved in media×300 the final concentration. […] Viable cells were counted after 8 minutes.

[2] = tested on: PAI-1+/+ fibrosarcoma cells; experiment: LDH release cytotoxicity assay; type: cell-based, mouse; settings: PAI-1+/+ cells
From the text: (§1) The damage of the plasma membrane is classically evaluated as a parameter for cell death. In vivo the plasma membrane of apoptotic cells persists until the cell is phagocytised. In contrast, necrotic cell death results in leakage of cytoplasm to the extracellular environment, which leads to an inflammatory response. Under cell culture conditions, cells that have been subjected to an apoptotic stimulus will initially die by apoptosis, but later shift into secondary necrosis due to lack of phagocytosis in the cell culture. Cytotoxicity or cell lysis can be measured by determining the release of lactate dehydrogenase (LDH) in the culture supernatant. For this purpose the “Cytotoxicity detection kit” (Roche, Mannheim, Germany) was employed.
(§2) PAI-1−/− and PAI-1+/+ fibrosarcoma cells were seeded in a 96-well microtiter plate (2500 cells/well). Fifty μl of culture supernatant (total: 200 μl) is transferred to a new 96-well microtiter plate and mixed with 50 μl of a substrate mix. The remaining supernatant is discarded, and the remaining intact cells are lysed by addition of 200 μl of lysis buffer (1% Triton-X100 in CM). After 30 min lysis at 37° C., 50 μl of lysate is transferred to a new 96-well microtiter plate and mixed with 50 μl of a substrate mix. The cell culture supernatant and lysate are incubated for 10 min with the substrate mix protected from light. The absorbance is measured on a spectrophotometer at λ1=490 nm and reference λ2=650 nm. The amount of released LDH in % is related to total amount: [formula] Results

[3] = tested on: PAI-1−/− fibrosarcoma cells; experiment: LDH release cytotoxicity assay; type: cell-based, mouse; settings: for LDH release (% of total activity): PAI-1−/− cells; for sensitivity to treatment (LDH release): PAI-1−/− compared with PAI-1+/+ fibrosarcoma cells; for cell lysis (LDH release): both PAI-1−/− and PAI-1+/+ fibrosarcoma cells
From the text: as §1, §2

[4] = tested on: PAI-1 transfected PAI-1−/− fibrosarcoma cells; experiment: LDH release after reintroduction of PAI-1 expression; type: cell-based, mouse; settings: PAI-1−/−(PAI-1 pool) versus PAI-1−/− (vector pool) and parental PAI-1−/− cells
Description: Transfection of PAI-1−/− fibrosarcoma cells was performed by the use of Lipofectamine 2000 ([…]) according to the manufactures instructions employing 2×10^5 cells. After 2 days the cells were seed in tissue culture flasks and 100 μg/ml Hygromycin was added to the medium to select for transfected cells in pooled population. Experiments were performed 2 months after transfection. The sensitivity to apoptosis was measured by treating the cells with etoposide and TNF-α and detecting the LDH release as described in Example 4.

[5] = tested on: TIMP-1−/− and TIMP-1+/+ fibrosarcoma cells; experiment: LDH release cytotoxicity assay; type: cell-based, mouse
From the text: as §1
TIMP-1−/− and TIMP-1+/+ fibrosarcoma cells (see above method for establishment of fibrosarcoma cells from mice) were seeded in a 96-well microtiter plate (2500 cells/well). After 24 hours, cells are treated with etoposide for 24 h. Fifty μl of culture supernatant (total: 200 μl) is transferred to a new 96-well microtiter plate and mixed with 50 μl of a substrate mix. The remaining supernatant is discarded, and the remaining intact cells are lysed by addition of 200 μl of lysis buffer (1% Triton-X100 in CM). […] The absorbance is measured on a spectrophotometer at λ1=490 nm and reference λ2=650 nm. […]

[6] = tested on: TIMP-1 +/+ and TIMP-1 −/− fibrosarcoma cell lines; experiment: DNA-histone complex assay; type: cell-based, mouse
[7] = In vivo toxicity (weight loss, white blood cells) in PAI-1 +/+ and PAI-1 −/− mice; settings: 75 mg/kg i.p.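 Note: nude META/Bom nu/nu mice of both sexes, 24-30 g, blood taken for hematology on day 3 (anticipated WBC nadir) and on day 5 after dosing.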
Description: We investigated the sensitivity of the intact mouse by a “comparison” of sensitivity between the PAI-I +/+ and −/− mice in terms of weight loss.
Furthermore blood was sampled on the day of expected nadir (day 3 (WBC)) and day 5, with hematological evaluation.
Mice: META™/Bom nu/nu; PAI-1+/+ and PAI-1 −/−. Size (gram): 24-30 grams females and males.
The drug was administered i.p., freshly made, relative to body weight, in a NaCl solvent (Batch 3036111) according to the following table:

Nc1ccn([C@@H]2O[C@H](CO)[C@@H](O)[C@@H]2O)c(=O)n1 [ARA-C]
sensitivity in clonogenic assay (colony formation) [1]: significantly more sensitive

COc1cccc2c1C(=O)c1c(O)c3c(c(O)c1C2=O)C[C@@](O)(C(=O)CO)C[C@@H]3O[C@H]1C[C@H](N)[C@H](O)[C@H](C)O1 [doxorubicin]
sensitivity in clonogenic assay (colony formation) [1]: significantly more sensitive

CC[C@]1(O)C[C@H]2CN(CCc3c([nH]c4ccccc34)[C@@](C(=O)OC)(c3cc4c(cc3OC)N(C=O)[C@H]3[C@@](O)(C(=O)OC)[C@H](OC(C)=O)[C@]5(CC)C=CCN6CC[C@]43[C@@H]65)C2)C1 [vincristine]
sensitivity in clonogenic assay (colony formation) [1]: significantly more sensitive

N.N.[Cl][Pt][Cl] [cisplatin]
sensitivity in clonogenic assay (colony formation) [1]: significantly more sensitive

TNF-α
LDH release (% of total activity) ([2]; 2.5 ng/ml TNF-α, 24 h): 7.3% | LDH release (% of total activity) ([3]; 2.5 ng/ml TNF-α, 24 h): 46.3% | sensitivity to treatment (LDH release) [3]: significantly more sensitive | cell lysis (LDH release) [3]: dose-dependent cell lysis | resistance to induced cell death (LDH release) [4]: significantly more resistant

COc1cc([C@@H]2c3cc4c(cc3[C@@H](O[C@@H]3O[C@@H]5CO[C@@H](C)O[C@H]5[C@H](O)[C@H]3O)[C@H]3COC(=O)[C@H]23)OCO4)cc(OC)c1O [etoposide]
sensitivity in clonogenic assay (colony formation) [1]: significantly more sensitive | LDH release (% of total activity) ([2]; 1.25 μM etoposide, 48 h): 1% | LDH release (% of total activity) ([3]; 1.25 μM etoposide, 48 h): 41.10% | sensitivity to treatment (LDH release) [3]: significantly more sensitive | cell lysis (LDH release) [3]: dose-dependent cell lysis | sensitivity to treatment (LDH release) ([5]; TIMP-1−/− compared with TIMP-1+/+ fibrosarcoma cells): significantly more sensitive | cell lysis (LDH release) ([5]; both TIMP-1−/− and TIMP-1+/+ fibrosarcoma cells): dose-dependent cell lysis | resistance to induced cell death (LDH release) [4]: significantly more resistant | apoptosis induction [6]: induced apoptosis | day of WBC nadir ([7]; both genotypes): 3 days | effect on white blood cell count (WBC) ([7]; both genotypes, p=0.0003): suppresses white blood cell count | difference in WBC response between PAI-1 +/+ and PAI-1 −/− mice ([7]; p=0.99): no difference | weight loss in treated mice ([7]; treated versus untreated, p<0.0001): significant loss of weight | Drug induced effect on weight loss (weight, initial = 100) ([7]; PAI-1 +/+ female mice, 22.0 hours): 101.2 | Drug induced effect on weight loss (weight, initial = 100) ([7]; PAI-1 +/+ female mice, 44.5 hours): 98.3 | Drug induced effect on weight loss (weight, initial = 100) ([7]; PAI-1 +/+ female mice, 67.0 hours): 98.2 | Drug induced effect on weight loss (weight, initial = 100) ([7]; PAI-1 +/+ female mice, 93.5 hours): 98.4 | Drug induced effect on weight loss (weight, initial = 100) ([7]; PAI-1 +/+ female mice, 120.0 hours): 97.7 | Drug induced effect on weight loss (weight, initial = 100) ([7]; PAI-1 +/+ male mice, 22.0 hours): 97.6 | Drug induced effect on weight loss (weight, initial = 100) ([7]; PAI-1 +/+ male mice, 44.5 hours): 94.9 | Drug induced effect on weight loss (weight, initial = 100) ([7]; PAI-1 +/+ male mice, 67.0 hours): 92.9 | Drug induced effect on weight loss (weight, initial = 100) ([7]; PAI-1 +/+ male mice, 93.5 hours): 91.0 | Drug induced effect on weight loss (weight, initial = 100) ([7]; PAI-1 +/+ male mice, 120.0 hours): 91.8 | Drug induced effect on weight loss (weight, initial = 100) ([7]; PAI-1 −/− female mice, 22.0 hours): 99.9 | Drug induced effect on weight loss (weight, initial = 100) ([7]; PAI-1 −/− female mice, 44.5 hours): 99.1 | Drug induced effect on weight loss (weight, initial = 100) ([7]; PAI-1 −/− female mice, 67.0 hours): 99.6 | Drug induced effect on weight loss (weight, initial = 100) ([7]; PAI-1 −/− female mice, 93.5 hours): 98.7 | Drug induced effect on weight loss (weight, initial = 100) ([7]; PAI-1 −/− female mice, 120.0 hours): 100.3 | Drug induced effect on weight loss (weight, initial = 100) ([7]; PAI-1 −/− male mice, 22.0 hours): 99.1 | Drug induced effect on weight loss (weight, initial = 100) ([7]; PAI-1 −/− male mice, 44.5 hours): 96.3 | Drug induced effect on weight loss (weight, initial = 100) ([7]; PAI-1 −/− male mice, 67.0 hours): 96.4 | Drug induced effect on weight loss (weight, initial = 100) ([7]; PAI-1 −/− male mice, 93.5 hours): 95.6 | Drug induced effect on weight loss (weight, initial = 100) ([7]; PAI-1 −/− male mice, 120.0 hours): 97.0
